Test results as given in patent US12344644B2, “Amelioration and treatment of infarction damage with a polypeptide segement of BNIP3” (priority 2021, dated 2025).

Assays:
[1] = test system: human cardiomyocytes (HCM); assay: DOX induced mitochondrial ROS generation in human cardiomyocytes; settings: 10 μM DOX alone or with peptide co-administered; four and 22 hours
[2] = test system: human cardiomyocytes (HCM); assay: DOX induced mPTP opening in human cardiomyocytes (Calcein-AM); settings: 10 μM DOX alone or with peptide co-administered
[3] = test system: human cardiomyocytes (HCM); assay: DOX induced mitochondrial membrane potential destabilization in human cardiomyocytes; settings: 10 μM DOX alone or with peptide co-administered; four and 22 hours
[4] = test system: wild-type mice; assay: DOX treatment in vivo: cardiac injury markers (cTnI, CK, LDH, BNP); design: species or system mouse; settings: DOX alone or with coadministration of PepB
[5] = test system: autophagic flux; assay: DOX treatment in vivo: autophagic flux (LC3, p62, BNIP3 western blot, chloroquine); settings: DOX alone or with PepB
[6] = test system: wild-type mice; assay: DOX treatment in vivo: serial echocardiography; settings: DOX alone or in combination with PepB
Source text: Next, we explored the effect of DOX treatment on cardiac function assessed with echocardiographic measurements at three time points (TO, T1 16 days, T2 42 days) (FIG. 19).

[7] = test system: mitochondria; assay: DOX treatment in vivo: mitochondrial OCR (Seahorse mitochondrial stress test)
[8] = test system: human cardiomyocytes (HCM); assay: DOX induced mitochondrial calcium ion overload in human cardiomyocytes; settings: 10 μM DOX alone or with peptide co-administered; four hours
[9] = test system: wild-type mice subjected to myocardial I/R; assay: In vivo murine myocardial I/R: infarct size per area at risk (Evans blue/TTC); design: species or system mouse; settings: 30 min ischemia, 24 hours reperfusion
[10] = test system: BNIP3; assay: Mitochondrial BNIP3 level in the AAR after I/R (immunoblot); type: in vivo, mouse; settings: 10 minutes reperfusion
[11] = test system: caspase-3; assay: Caspase-3 activity in the AAR after I/R; type: in vivo, mouse; settings: 1 hour reperfusion
[12] = target: T1, recombinant BNIP3 (Mus musculus, UniProt O55003); assay: BNIP3/peptide microarray (truncation, alanine scan, substitution analysis); type: binding; settings: alanine scan and substitution analyses of BNIP3 1-20
T1 construct: purchased Cusabio (obtained via Hölzel Diagnostika, Cologne, Germany) CSB-CF002766Mo-50
T1 sequence (O55003 whole entry, the tested form may be a part): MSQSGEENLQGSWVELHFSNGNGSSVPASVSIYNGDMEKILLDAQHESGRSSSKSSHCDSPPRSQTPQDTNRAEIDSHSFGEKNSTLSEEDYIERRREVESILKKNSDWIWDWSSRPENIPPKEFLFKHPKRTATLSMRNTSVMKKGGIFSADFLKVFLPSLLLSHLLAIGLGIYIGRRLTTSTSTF

COc1cccc2c1C(=O)c1c(O)c3c(c(O)c1C2=O)C[C@@](O)(C(=O)CO)C[C@@H]3O[C@H]1C[C@H](N)[C@H](O)[C@H](C)O1 [DOX, doxorubicin]
mitochondrial ROS generation [1]: triggered | mPTP opening [2]: activated | mitochondrial membrane potential [3]: disrupted | cardiomyocyte death, cardiac troponin I (cTnl) levels [4]: high cardiac troponin I (cTnl) levels | BNIP3 accumulation [5]: triggered p62 and BNIP3 accumulation | p62 accumulation [5]: triggered p62 and BNIP3 accumulation | heart rate [6]: unaffected | basal respiration ([7]; DOX alone or with PepB): affected | maximal respiration ([7]; DOX alone or with PepB): affected | respiratory reserve capacity (OCR) ([7]; DOX alone or with PepB): inhibited | Complex II-stimulated respiration ([7]; DOX alone or with PepB co-treatment): inhibition | mitochondrial calcium ion overload [8]: induced

GRKKRRQRRRPQLDAQHESGRSSSKSSHCDSP [TATBNIP3-20C, control peptide: HIV-1 PTD and 20 amino acids derived from BNIP3 42-61]
infarct size compared with vehicle treatment ([9]; injected 5 minutes before reperfusion): no difference

GRKKRRQRRRPQMSQSGEENLQGSWVELHFSN [TAT-BNIP3-20A, HIV-1 PTD and 20 amino acids derived from BNIP3 1-20]
reduction in infarct size relative to treatment with vehicle ([9]; peptide injected 5 minutes before reperfusion): 41% | BNIP3 translocation to the mitochondria [10]: prevented BNIP3 translocation | caspase-3 activity [11]: markedly reduced caspase-3 activity

VELHFSN
BNIP3 binding (microarray signal) [12]: substantially higher luminescence
